Assay results from PMC11449324, “Functional comparison of human and murine equilibrative nucleobase transporter 1” (PLOS ONE, 2024).

Experiments:
[1] = target: T1, hENBT1 (SLC43A3-encoded human ENBT1) (Homo sapiens, UniProt Q8NBI5); experiment: Radiolabelled substrate uptake (oil-stop, 2 s) in HEK293-hSLC43A3 cells; type: cell-based
T1 construct: Oligonucleotides corresponding to the coding region of SLC43A3 (NM_001278201) or slc43a3 (NM_021398); expressed in transfected cells; HEK293-hSLC43A3
T1 sequence (Q8NBI5 1-491): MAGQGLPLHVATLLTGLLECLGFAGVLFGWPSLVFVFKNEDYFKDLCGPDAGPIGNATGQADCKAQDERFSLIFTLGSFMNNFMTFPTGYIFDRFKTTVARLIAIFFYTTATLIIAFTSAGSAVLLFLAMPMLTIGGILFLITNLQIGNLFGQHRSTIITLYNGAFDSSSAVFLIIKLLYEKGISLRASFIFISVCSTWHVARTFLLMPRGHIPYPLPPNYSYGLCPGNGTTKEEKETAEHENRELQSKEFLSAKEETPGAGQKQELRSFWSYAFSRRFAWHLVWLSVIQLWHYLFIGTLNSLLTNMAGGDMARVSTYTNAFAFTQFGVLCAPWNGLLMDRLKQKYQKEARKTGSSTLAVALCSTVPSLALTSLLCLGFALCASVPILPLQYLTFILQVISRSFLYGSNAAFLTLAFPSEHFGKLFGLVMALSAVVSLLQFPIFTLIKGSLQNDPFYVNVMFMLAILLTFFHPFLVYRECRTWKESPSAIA
Protocol: (§1) Harvested cells were suspended in nominally sodium-free N-methyl-D-glucamine (NMG) buffer (140 mM NMG, 5 mM KCl, 4.2 mM KHCO3, 0.36 mM K2HPO4, 0.44 mM KH2PO4, 0.5 mM MgCl2, 1.3 mM CaCl2, 10 mM HEPES, pH 7.4), to minimize potential contribution of sodium-dependent concentrative nucleoside transporter-mediated uptake. Additionally, cells were incubated for 15 minutes at room temperature with 10 μM dipyridamole (DY), an equilibrative nucleoside transporter (ENT) inhibitor, to block equilibrative nucleoside transporter–mediated uptake. The substrate uptake assay was initiated by adding 250 μL cell suspension to 250 μL [^3H] labeled substrate, layered over 21:4 silicone:mineral oil (200 μL) in 1.5 mL microcentrifuge tubes (conducted at room temperature). The uptake reaction was terminated after 2 seconds by centrifugation of the cells through the oil layer at ~10,000 g. […] The resulting cell pellet was digested in 250 μL 1 M NaOH overnight (~16 hours), with 220 μL aliquots of digested cells assessed for radioactive content using standard liquid scintillation counting techniques in a Beckman Coulter LS6500 scintillation system (Brea, CA).
(§2) In transfected-HEK293 cell lines, total uptake was defined as uptake of radiolabeled substrate in cells overexpressing recombinant hENBT1 or mENBT1. […] ENBT1-mediated uptake was calculated as total uptake minus the non-mediated uptake. […]

[2] = target: T2, mENBT1 (slc43a3-encoded mouse ENBT1) (Mus musculus, UniProt A2AVZ9); experiment: Radiolabelled substrate uptake (oil-stop, 2 s) in HEK293-mslc43a3 cells; type: cell-based
T2 construct: Oligonucleotides corresponding to the coding region of SLC43A3 (NM_001278201) or slc43a3 (NM_021398); expressed in transfected cells; HEK293-mslc43a3
T2 sequence (A2AVZ9 1-502): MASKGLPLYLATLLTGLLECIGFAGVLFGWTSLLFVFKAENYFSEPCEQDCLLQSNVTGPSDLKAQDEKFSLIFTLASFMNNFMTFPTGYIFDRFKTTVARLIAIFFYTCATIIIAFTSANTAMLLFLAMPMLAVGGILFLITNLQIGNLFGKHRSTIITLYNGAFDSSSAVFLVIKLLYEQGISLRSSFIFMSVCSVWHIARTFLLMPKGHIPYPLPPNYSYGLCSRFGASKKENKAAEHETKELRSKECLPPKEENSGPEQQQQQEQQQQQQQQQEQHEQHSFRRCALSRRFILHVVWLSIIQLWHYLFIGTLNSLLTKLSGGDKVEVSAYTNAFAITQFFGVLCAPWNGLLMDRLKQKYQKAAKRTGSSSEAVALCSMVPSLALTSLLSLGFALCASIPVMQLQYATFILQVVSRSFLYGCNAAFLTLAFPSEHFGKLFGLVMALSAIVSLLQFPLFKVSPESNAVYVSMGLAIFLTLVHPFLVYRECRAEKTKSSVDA
Protocol: as §1, §2

6-MP Km relative to adenine Km [1]: 3 fold
6-MP Vmax relative to adenine Vmax [1]: 3 fold
6-MP Km relative to adenine Km [2]: 3 fold
6-MP Vmax relative to adenine Vmax [2]: 3 fold
Compound: Sc1ncnc2nc[nH]c12 [6-MP, 6-Mercaptopurine]
